Assay results taken from patent US12280072B2, “Oligosaccharide compound for inhibiting intrinsic coagulation factor X-enzyme complex, and preparation method therefor and uses thereof” (Jiuzhitang Co., Ltd., priority 2017, dated 2025).
pIC50: −log10 of the molar value.

Tests used:
[1] = tested on: human-controlled plasma; test: Anticoagulant activity assay: APTT clotting time; assay type: biochemical
Outline: (§1)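 Compounds in Tris-HCl buffer were serially diluted, and 10 μL was added to 90 μL human control plasma. PT and APTT clotting times were measured on an MC-4000 coagulometer following kit instructions.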

[2] = tested on: human-controlled plasma; test: Anticoagulant activity assay: PT clotting time; assay type: biochemical
Outline: as §1

[3] = tested on: plasma; test: TT (thrombin time) clotting time; assay type: biochemical
[4] = molecular target: T1, intrinsic factor Xase (Homo sapiens, UniProt P00740); test: Xase inhibitory activity assay; assay type: biochemical; details: read-out: Drug concentration required to inhibit 50% of coagulation factor activity (IC50, ng/mL) Xase (converted)
T1 construct: 60 nM FIXa; purchased
Outline: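 Reagents mixed at 37 °C: compound with FVIII (2 IU/ml) and FIXa reagent (60 nM, with FIIa, PC/PS, Ca2+) for 2 min, then FX reagent (50 nM, with thrombin inhibitor) for 1 min, then chromogenic substrate SXa-11. OD405 slope over 7.5 min, relative to buffer control as 100%; IC50 from Hill-equation fit.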

[5] = molecular target: T2, FXa (Homo sapiens); test: AT-dependent Xa inhibitory activity assay; assay type: biochemical; details: in presence of AT; read-out: Drug concentration required to inhibit 50% of coagulation factor activity (IC50, ng/mL) Xa (AT)
T2 construct: 8 μg/mL FXa solution; purchased
Outline: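 Sample preincubated 1 min at 37 °C with antithrombin (1 IU/mL solution), then FXa (8 µg/mL solution) 1 min, then chromogenic substrate SXa-11 (1.25 mM solution). Rate of OD405 change gives residual FXa activity relative to buffer control; duplicates, IC50 fitted with a Hill equation.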

[6] = molecular target: T3, FIIa (Homo sapiens); test: AT-dependent IIa inhibitory activity assay; assay type: biochemical; details: in presence of AT; read-out: Drug concentration required to inhibit 50% of coagulation factor activity (IC50, ng/mL) Ha (AT)
T3 construct: antithrombin (i.e., active coagulation factor IIa); purchased
Outline: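 Sample preincubated with 1 IU/mL antithrombin 2 min at 37 °C, then 24 IU/mL FIIa 2 min, then 1.25 mM chromogenic substrate CS-01 (stock concentrations). OD405 rate relative to buffer control gave residual activity; IC50 from Hill-equation fit.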

[7] = tested on: inferior vena cava thrombosis; test: Anti-venous thrombosis experiment (rabbit brain powder infusion plus ligation); assay type: in vivo, SD rats; details: rats, sc., experimental dose (2.5, 5.0, 10 mg/kg)
Procedure: Grouping and Administration: Rats were randomly divided into 8 groups with 8 animals in each group. The experimental groups and the dose of the animals in each group were (1) natural saline (NS) control group; (2) LMWH 4.0 mg/kg group; (3) A2 2.5 mg/kg group; (4) A2 group 5.0 mg/kg; (5) A2 10 mg/kg group; (6) D1 2.5 mg/kg group; (7) D1 5.0 mg/kg group; (8) D1 10 mg/kg group. The rats in each group were administered subcutaneously (sc.) into the back, and the administration volume was 1 mL/kg. The modeling experiment was performed 1 hour after administration. A New Zealand rabbit was sacrificed, and the rabbit brain was taken out immediately. Rabbit brain powder infusion was prepared according to the literature method (Thromb Haemost, 2010, 103(5): 994-1004), and stored at −20° C. for use. […] The femoral vein was injected with 2% rabbit brain powder infusion (1 mL/kg). After 20 seconds, the lower margin of the left renal vein was ligated. After the operation, the viscera was placed back into the abdominal cavity and covered with medical gauze (infiltrated with natural saline). […] The length of the thrombus was measured, and the wet weight of the thrombus was weighed and then dry weight was weighed after drying at 50° C. for 24 h. The SPSS software was used to organize and analyze the data, and the measurement data were expressed as mean±standard deviation (x±s). […]

[8] = tested on: mouse tail bleeding; test: Bleeding tendency detection (tail-clipping method); assay type: in vivo; details: mice, sc., high dose of equal multiple of the equivalent antithrombotic dose, vs LMWH
Procedure: Grouping and administration: Mice were randomly divided into 10 groups with 8 animals in each group. The experimental groups and the dose of the animals in each group were (1) natural saline (NS) control group; (2) LMWH 4.0 mg/kg group; (2) LMWH 20 mg/kg group; (3) LMWH 100 mg/Kg group; (4) A2 5 mg/kg group; (5) A2 25 mg/kg group; (6) A2 125 mg/kg group; (7) D1 5 mg/kg group; (8) D1 25 mg/Kg group; (10) D1 125 mg/kg group. The […] in each group were administered subcutaneously (sc.) into the back, and the dose volume was 10 mL/kg.
After 60 min of subcutaneous administration in each experimental group, the mice were placed in a mouse holder, and the tail tip was cut by 5 mm by tail-clipping method, and the mouse tail was immersed in 40 mL of purified water (37° C.) in the beaker. […] At 60 min, the beaker was placed for 60 min and then the absorbance of the solution (OD540) was detected by a UV spectrophotometer.
In addition, whole blood of healthy mice was taken, and the whole blood of different volumes of mice was added to 40 mL of purified water, stirred uniformly and allowed to stand for 60 min. The absorbance (OD540) of the solution was detected by the same method and the volume-absorbance curve was plotted and used as the standard curve for calculating the amount of bleeding. The amount of bleeding in each experimental group was calculated by the standard curve. […]

T1 sequence (P00740 47-191 limits assumed): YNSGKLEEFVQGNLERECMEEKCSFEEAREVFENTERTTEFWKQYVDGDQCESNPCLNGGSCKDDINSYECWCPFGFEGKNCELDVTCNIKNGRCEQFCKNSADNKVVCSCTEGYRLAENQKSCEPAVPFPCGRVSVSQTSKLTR
T1 sequence (P00740 227-461 limits assumed): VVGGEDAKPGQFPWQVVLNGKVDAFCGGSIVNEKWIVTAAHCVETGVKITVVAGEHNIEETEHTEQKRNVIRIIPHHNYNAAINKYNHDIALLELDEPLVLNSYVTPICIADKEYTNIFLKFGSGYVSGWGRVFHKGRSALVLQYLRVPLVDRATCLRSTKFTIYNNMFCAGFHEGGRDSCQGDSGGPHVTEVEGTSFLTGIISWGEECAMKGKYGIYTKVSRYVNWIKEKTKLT
T3 sequence (P01008 33-464): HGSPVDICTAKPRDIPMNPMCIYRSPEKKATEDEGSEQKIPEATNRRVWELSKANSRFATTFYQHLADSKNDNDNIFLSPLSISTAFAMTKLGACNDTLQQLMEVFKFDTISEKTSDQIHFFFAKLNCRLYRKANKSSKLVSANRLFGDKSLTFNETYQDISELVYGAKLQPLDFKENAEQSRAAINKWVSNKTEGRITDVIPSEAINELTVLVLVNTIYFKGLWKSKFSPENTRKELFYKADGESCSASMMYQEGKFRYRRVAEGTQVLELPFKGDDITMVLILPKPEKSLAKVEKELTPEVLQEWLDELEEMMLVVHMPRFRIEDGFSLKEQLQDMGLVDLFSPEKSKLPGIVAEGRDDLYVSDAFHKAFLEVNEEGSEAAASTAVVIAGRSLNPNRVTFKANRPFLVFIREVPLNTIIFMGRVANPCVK
T2 sequence (P01008 33-464): as above

- IC50 [4]: 23.8 nM
- pIC50 [5]: < 5.71
- pIC50 [6]: < 5.71
Compound: CC(=O)NC(CO)C(OC1OC(C(=O)O)C(OC2OC(COS(=O)(=O)O)C(OS(=O)(=O)O)C(OC3OC(C(=O)O)C(OC4OC(COS(=O)(=O)O)C(OS(=O)(=O)O)C(OC5OC(C(=O)O)=CC(OC6OC(C)C(OS(=O)(=O)O)C(O)C6OS(=O)(=O)O)C5O)C4NC(C)=O)C(OC4OC(C)C(OS(=O)(=O)O)C(O)C4OS(=O)(=O)O)C3O)C2NC(C)=O)C(OC2OC(C)C(OS(=O)(=O)O)C(O)C2OS(=O)(=O)O)C1O)C(OS(=O)(=O)O)C(O)COS(=O)(=O)O [Compound A2, L-Fuc2S4S-(α1,3)-ΔUA-(α1,3)-{D-GaNAc4S6S-(β1,4)-[L-Fuc2S4S-(α1,3)]-D-GlcA-(β1,3)}n+1-D-GalNAc4S6S-ol]
- Drug concentration required for multiplication of coagulation time (μg/mL) APTT [1]: 7.2 µg/mL
- Drug concentration required for multiplication of coagulation time (μg/mL) PT [2]: # (>128 μg/mL)
- Drug concentration required for multiplication of coagulation time (μg/mL) TT [3]: # (>128 μg/mL)
- antithrombotic activity [7]: significant antithrombotic activity
- amount of bleeding [8]: significantly lower than that in LMWH administration group
